Earlier results on one compound are cited in patent US20220288059A1, “NANOENCAPSULATED CANNABIDIOL” (Aphios Corporation, priority 2020, published 2022).

Data set [1] relates to rhesus monkeys. The conditions noted are these: intravenously.
Data set [2] concerns dogs. The note with it: intravenously.
Data set [3] relates to mice.
Data set [4] deals with Wistar rats.
In data set [5] the test system is rats. The note with it: i.v.
Data set [6] deals with mice. The note with it: intravenously.

Regarding `C=C(C)[C@@H]1CCC(C)=C[C@H]1c1c(O)cc(CCCCC)cc1O` [CBD, cannabidiol], the “LD50 in rhesus monkeys” value in data set [1] is 212 mg/kg. For the same compound, in data set [2], the LD50 in dogs is 254 mg/kg. Besides, the “inhibition of cue-induced heroin-seeking behaviors” value in data set [3] is “effectively inhibit cue-induced heroin-seeking behaviors”. Moreover, the “anti-nociceptive effect, tail-flick test” value in data set [4] is recorded as “dose-dependent anti-nociceptive effects”. Moreover, in data set [5], the “toxicity relative to Δ9-THC by LD50” value is “less toxic than Δ9-THC”. Also, in data set [6], the LD50 in mice was 50 mg/kg.
